Test results: patent US9995734B2, “Human T cell line assay for evaluating the immunologic identity of glatiramer acetate preparations” (Mylan Inc., priority 2013, dated 2018)

Assays:
[1] = tested on: Donor 1 COP T-Cell Lines; assay: Multiplex bead cytokine assay (FlowCytoMix), Donor 1 COP T-cell lines; type: cell-based, human
Description: Culture medium was removed from cultures prepared as for proliferation assay and utilized to measure cytokine production. In most cases culture medium was collected 18-24 hours after mixing T-cells, APC, and stimulating antigen. Cytokine production was measured by ELISA or bead assay. For measuring cytokine production, 100-150 μL culture medium (100 μL if culture was to be continued, otherwise 150 μL) was removed from each well. In some cases, the culture was continued 48 hours, for a total of 72 hours of culture, and the proliferative response measured.
(§1) The concentration of multiple cytokines was measured simultaneously using FlowCytoMix™ kits (eBioscience, San Diego Calif.). These are fluorescent bead based assays consisting of beads conjugated to anti cytokine antibodies. Beads specific for each cytokine are distinguished by size and fluorescence at 670 run. Cytokine bound to each bead is detected using a phycoerythrin conjugated antibody so that the fluorescence at 585 nm reflects the concentration of cytokine in the sample. Two kits were utilized which measured different cytokine panels. The TH1/TH2 kit measures IFN-γ, IL-1β, IL-2, IL-4, IL-5, IL-6, IL-8, IL-10, IL-12p70, TNF-α (TNF) and TNF-β (LT). The TH1/TH2/TH9/TH17/TH22 kit measures […], IL-1β, IL-2, IL-4, IL-5, IL-6, IL-9, IL-10, IL-12p70, IL-13, IL-17, IL-22, and TNF-α (TNF). Both kits were used following the manufacturer's instructions.
IL-12p70, IFN-γ, IL-2, IL-10, IL-8, IL-6, IL-5, IL-4, IL-1β, TNF-α (TNF), and TNF-β (LT) secretion were measured in response to stimulation with 1, 3, or 10 μg/mL GMA, or 1, 3, or 10 μg/mL COP, as well as a no-antigen control and an MBP control, in the presence of autologous EBV-transformed B-LCL.

[2] = tested on: Donor 3 GMA Responsive T Cells; assay: Cytokine multiplex assay, Donor 3 GMA responsive T cells; type: cell-based, human; settings: culture medium
Description: as §1

[3] = 222-1C5, 1 μg/mL, 24 hours after Day 56 restimulation
[4] = 222-1C5, 3 μg/mL, 24 hours after Day 56 restimulation
[5] = 222-1C5, 10 μg/mL, 24 hours after Day 56 restimulation
[6] = 222-1C5, 10 μg/mL, Day 34 supernatants
[7] = 222-1H12, 10 μg/mL, Day 34 supernatants
[8] = 222-2B8, 1 μg/mL, 24 hours after Day 56 restimulation
[9] = 222-2B8, 3 μg/mL, 24 hours after Day 56 restimulation
[10] = 222-2B8, 10 μg/mL, 24 hours after Day 56 restimulation
[11] = 222-2D2, 10 μg/mL, Day 34 supernatants
[12] = 222-2D8, 10 μg/mL, Day 34 supernatants
[13] = 222-2E1, 1 μg/mL, 24 hours after Day 56 restimulation
[14] = 222-2E1, 3 μg/mL, 24 hours after Day 56 restimulation
[15] = 222-2E1, 10 μg/mL, 24 hours after Day 56 restimulation
[16] = 222-B11 (so in the source), 1 μg/mL, 24 hours after Day 56 restimulation
[17] = 222-B11 (so in the source), 3 μg/mL, 24 hours after Day 56 restimulation
[18] = 222-B11 (so in the source), 10 μg/mL, 24 hours after Day 56 restimulation

Substance glatiramer acetate [COP] has an IFN-γ [1, 3] of 158 pg/mL, an IL-2 [1, 3] of 0 pg/mL and an IL-5 [1, 3] of 0 pg/mL. It also gave an IL-10 [1, 3] of 11 pg/mL, an IL-13 [1, 3] of 129 pg/mL and an IL-22 [1, 3] of 0 pg/mL. It also gave a TNF-α [1, 3] of 11 pg/mL, an IFN-γ [1, 4] of 256 pg/mL and an IL-2 [1, 4] of 0 pg/mL. For the same substance, the IL-5 [1, 4] was 0 pg/mL, the IL-10 [1, 4] was 16 pg/mL and the IL-13 [1, 4] was 254 pg/mL. It also gave an IL-22 [1, 4] of 32 pg/mL, a TNF-α [1, 4] of 42 pg/mL and an IFN-γ [1, 5] of 585 pg/mL. The IL-2 [1, 5] was 40 pg/mL, the IL-5 [1, 5] was 0 pg/mL and the IL-10 [1, 5] was 49 pg/mL. The IL-13 [1, 5] was 837 pg/mL, the IL-22 [1, 5] was 42 pg/mL and the TNF-α [1, 5] was 42 pg/mL. For the same substance, the IFN-γ [1, 6] was 416.83 pg/mL, the IL-1β [1, 6] was “<= 0 pg/mL” and the IL-2 [1, 6] was “<= 0 pg/mL”. For the same substance, the IL-5 [1, 6] was 56.39 pg/mL, the IL-8 [1, 6] was “<= 0 pg/mL” and the IL-10 [1, 6] was 50.58 pg/mL. For the same substance, the TNF-α [1, 6] was “<= 0 pg/mL”, the TNF-β [1, 6] was 15.34 pg/mL and the IFN-γ [1, 7] was 3626 pg/mL. For the same substance, the IL-1β [1, 7] was 59 pg/mL, the IL-2 [1, 7] was 0 pg/mL and the IL-4 [1, 7] was 0 pg/mL. It also gave an IL-5 [1, 7] of 398 pg/mL, an IL-10 [1, 7] of 240 pg/mL and a TNF-α [1, 7] of 22 pg/mL. For the same substance, the TNF-β [1, 7] was 98 pg/mL, the IFN-γ [1, 8] was 8.46 pg/mL and the IL-2 [1, 8] was 0 pg/mL. The IL-5 [1, 8] was 0 pg/mL, the IL-10 [1, 8] was 2.99 pg/mL and the IL-13 [1, 8] was 204.31 pg/mL. The IL-22 [1, 8] was 83.01 pg/mL, the TNF-α [1, 8] was 0 pg/mL and the IFN-γ [1, 9] was 39.91 pg/mL. For the same substance, the IL-2 [1, 9] was 19.65 pg/mL, the IL-5 [1, 9] was 30.3 pg/mL and the IL-10 [1, 9] was 2.83 pg/mL. It also gave an IL-13 [1, 9] of 1028.23 pg/mL, an IL-22 [1, 9] of 77.82 pg/mL and a TNF-α [1, 9] of 0 pg/mL. For the same substance, the IFN-γ [1, 10] was 119.12 pg/mL, the IL-2 [1, 10] was 0 pg/mL and the IL-5 [1, 10] was 314.77 pg/mL. For the same substance, the IL-10 [1, 10] was 36.16 pg/mL, the IL-13 [1, 10] was 2825.8 pg/mL and the IL-22 [1, 10] was 143.57 pg/mL. The TNF-α [1, 10] was 91.29 pg/mL, the IFN-γ [1, 11] was 120 pg/mL and the IL-1β [1, 11] was 130.9 pg/mL. The IL-2 [1, 11] was 210.47 pg/mL, the IL-5 [1, 11] was 38.13 pg/mL and the IL-8 [1, 11] was 0.85 pg/mL. For the same substance, the IL-10 [1, 11] was 45.09 pg/mL, the TNF-α [1, 11] was 30.87 pg/mL and the TNF-β [1, 11] was 23.15 pg/mL. For the same substance, the “IL-4, IL-6, or IL-12 detected” value ([1]; 222-2D8, 222-1H12, 222-1C5, 222-2D2, Day 34 supernatants) was “Little or no”, the IFN-γ [1, 12] was 3296 pg/mL and the IL-1β [1, 12] was 2535 pg/mL. The IL-2 [1, 12] was 0 pg/mL, the IL-4 [1, 12] was 0 pg/mL and the IL-5 [1, 12] was 1587 pg/mL. It also gave an IL-10 [1, 12] of 100 pg/mL, a TNF-α [1, 12] of 493 pg/mL and a TNF-β [1, 12] of 267 pg/mL. For the same substance, the IFN-γ [1, 13] was 53.73 pg/mL, the IL-2 [1, 13] was 26.46 pg/mL and the IL-5 [1, 13] was 0 pg/mL. It also gave an IL-10 [1, 13] of 5.3 pg/mL, an IL-13 [1, 13] of 165.79 pg/mL and an IL-22 [1, 13] of 72.54 pg/mL. For the same substance, the TNF-α [1, 13] was 25.28 pg/mL, the IFN-γ [1, 14] was 163.61 pg/mL and the IL-2 [1, 14] was 40.39 pg/mL. The IL-5 [1, 14] was 0 pg/mL, the IL-10 [1, 14] was 12.19 pg/mL and the IL-13 [1, 14] was 1037.93 pg/mL. For the same substance, the IL-22 [1, 14] was 40.37 pg/mL, the TNF-α [1, 14] was 0 pg/mL and the IFN-γ [1, 15] was 405.26 pg/mL. It also gave an IL-2 [1, 15] of 0 pg/mL, an IL-5 [1, 15] of 106.24 pg/mL and an IL-10 [1, 15] of 22 pg/mL. For the same substance, the IL-13 [1, 15] was 2046.94 pg/mL, the IL-22 [1, 15] was 60.95 pg/mL and the TNF-α [1, 15] was 333.22 pg/mL. The IFN-γ [1, 16] was 0.65 pg/mL, the IL-2 [1, 16] was 63.02 pg/mL and the IL-5 [1, 16] was 0 pg/mL. It also gave an IL-10 [1, 16] of 0 pg/mL, an IL-13 [1, 16] of 47.69 pg/mL and an IL-22 [1, 16] of 69.37 pg/mL. It also gave a TNF-α [1, 16] of 0 pg/mL, an IFN-γ [1, 17] of 0 pg/mL and an IL-2 [1, 17] of 0 pg/mL. It also gave an IL-5 [1, 17] of 0 pg/mL, an IL-10 [1, 17] of 0 pg/mL and an IL-13 [1, 17] of 105.51 pg/mL. The IL-22 [1, 17] was 45.67 pg/mL, the TNF-α [1, 17] was 0 pg/mL and the IFN-γ [1, 18] was 47.35 pg/mL. For the same substance, the IL-2 [1, 18] was 0 pg/mL, the IL-5 [1, 18] was 119 pg/mL and the IL-10 [1, 18] was 11.27 pg/mL. For the same substance, the IL-13 [1, 18] was 1839.63 pg/mL, the IL-22 [1, 18] was 19.45 pg/mL and the TNF-α [1, 18] was 13.51 pg/mL. For the same substance, the “IFN-γ production” value ([1]; Line 105 (so in the source), Table 14 = 222-1C5, after appropriate dilution of supernatants) was “comparable amounts”, the IFN-γ ([2]; T-cell line 165-B5G) was 190 pg/mL and the IL-4 ([2]; T-cell line 165-B5G) was 17 pg/mL. The IL-5 ([2]; T-cell line 165-B5G) was 374 pg/mL, the IL-13 ([2]; T-cell line 165-B5G) was 2927 pg/mL and the IL-22 ([2]; T-cell line 165-B5G) was 106 pg/mL. It also gave an IFN-γ ([2]; T-cell line 165-D8G) of 115 pg/mL, an IL-4 ([2]; T-cell line 165-D8G) of 14 pg/mL and an IL-5 ([2]; T-cell line 165-D8G) of 309 pg/mL. It also gave an IL-13 ([2]; T-cell line 165-D8G) of 3121 pg/mL, an IL-22 ([2]; T-cell line 165-D8G) of 365 pg/mL and an IFN-γ ([2]; T-cell line 165-E9G) of 638 pg/mL. For the same substance, the IL-4 ([2]; T-cell line 165-E9G) was 12 pg/mL, the IL-5 ([2]; T-cell line 165-E9G) was 208 pg/mL and the IL-13 ([2]; T-cell line 165-E9G) was 1232 pg/mL. For the same substance, the IL-22 ([2]; T-cell line 165-E9G) was 192 pg/mL, the IFN-γ ([2]; T-cell line 165-F8G) was 771 pg/mL and the IL-4 ([2]; T-cell line 165-F8G) was 0 pg/mL. The IL-5 ([2]; T-cell line 165-F8G) was 297 pg/mL, the IL-13 ([2]; T-cell line 165-F8G) was 1017 pg/mL and the IL-22 ([2]; T-cell line 165-F8G) was 198 pg/mL. The IFN-γ ([2]; T-cell line 165-F10G) was 1165 pg/mL, the IL-4 ([2]; T-cell line 165-F10G) was 122 pg/mL and the IL-5 ([2]; T-cell line 165-F10G) was 2586 pg/mL. The IL-13 ([2]; T-cell line 165-F10G) was 11285 pg/mL, the IL-22 ([2]; T-cell line 165-F10G) was 686 pg/mL and the IFN-γ ([2]; T-cell line 165-H11G) was 724 pg/mL. For the same substance, the IL-4 ([2]; T-cell line 165-H11G) was 9 pg/mL, the IL-5 ([2]; T-cell line 165-H11G) was 321 pg/mL and the IL-13 ([2]; T-cell line 165-H11G) was 1095 pg/mL. It also gave an IL-22 ([2]; T-cell line 165-H11G) of 190 pg/mL.
